The source made the active and inactive calls. The rule behind the calls is not given here.
Experiments:
[1] = system: Listeria; assay: Antibacterial activity against Listeria assessed as inhibition of visible growth incubated for 20 to 24 hrs by microbroth serial dilution assay; assay type: functional, organism-based; details: time 20-24 hrs
[2] = system: Staphylococcus aureus; assay: (§1) Induction of resistant development in linezolid 5 passages resistance developed Staphylococcus aureus USA300 FPR3757 assessed as fold increase in MIC at sub-MIC concentration measured after 5 passages with conjugate by serial passage assay; assay type: functional
[3] = system: Staphylococcus aureus; assay: as §1, with “in -(6-(6-(Piperazin-1-y1)-9H-purin-9-y)methyl)pyridin-3-y1)-1H-1,2,3-triazol-1-yl)-22-deoxypleuromutilin-16” for “in linezolid 5”, “after 25” for “after 5”; assay type: functional
[4] = system: Staphylococcus aureus; assay: Induction of resistant development in lefamulin 5 passages resistance developed Staphylococcus aureus USA300 FPR3757 assessed as fold increase in MIC at sub-MIC concentration measured after 25 passages with conjugate by serial passage assay; assay type: functional
[5] = system: Staphylococcus epidermidis; assay: Antibacterial activity against Staphylococcus epidermidis assessed as inhibition of visible growth incubated for 20 to 24 hrs by microbroth serial dilution assay; assay type: functional, organism-based; details: time 20-24 hrs
[6] = system: Staphylococcus aureus; assay: Induction of resistant development in lefamulin 5 passages resistance developed Staphylococcus aureus USA300 FPR3757 assessed as fold increase in MIC at sub-MIC concentration measured after 28 passages with conjugate by serial passage assay; assay type: functional
[7] = Cardio-toxicity in human assessed as QT prolongation by measuring increase in mean QTc
[8] = biological target: Cytochrome P450 3A4 (Homo sapiens, UniProt P08684); assay: Inhibition of CYP3A4 in pooled human liver microsomes using midazolam as substrate; assay type: ADME, Microsome
Chain of Cytochrome P450 3A4 (P08684 whole entry): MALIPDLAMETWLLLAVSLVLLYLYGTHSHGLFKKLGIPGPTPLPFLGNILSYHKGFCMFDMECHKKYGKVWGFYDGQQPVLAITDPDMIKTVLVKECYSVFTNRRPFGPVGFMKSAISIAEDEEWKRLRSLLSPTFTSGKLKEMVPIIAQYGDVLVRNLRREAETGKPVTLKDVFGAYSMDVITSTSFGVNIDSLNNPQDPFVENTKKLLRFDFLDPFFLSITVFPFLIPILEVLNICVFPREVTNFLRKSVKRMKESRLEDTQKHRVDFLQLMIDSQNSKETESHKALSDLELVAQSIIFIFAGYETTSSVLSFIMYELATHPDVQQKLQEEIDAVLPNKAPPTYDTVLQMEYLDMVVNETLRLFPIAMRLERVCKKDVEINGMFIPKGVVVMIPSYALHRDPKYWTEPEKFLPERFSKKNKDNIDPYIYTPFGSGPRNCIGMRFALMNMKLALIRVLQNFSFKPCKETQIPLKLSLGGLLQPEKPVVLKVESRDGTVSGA

[9] = system: Staphylococcus aureus; assay: Induction of resistant development in linezolid 5 passages resistance developed Staphylococcus aureus USA300 FPR3757 assessed as fold increase in MIC at sub-MIC concentration measured after 22 passages with conjugate by serial passage assay; assay type: functional
[10] = system: Staphylococcus aureus; assay: Induction of resistant development in linezolid 5 passages resistance developed Staphylococcus aureus USA300 FPR3757 assessed as fold increase in MIC at sub-MIC concentration measured after 28 passages with conjugate by serial passage assay; assay type: functional
[11] = system: Staphylococcus aureus; assay: Induction of resistant development in linezolid 5 passages resistance developed Staphylococcus aureus USA300 FPR3757 assessed as fold increase in MIC at sub-MIC concentration measured after 13 passages with conjugate by serial passage assay; assay type: functional
[12] = system: Staphylococcus aureus; assay: as §1, with “in -(6-(6-(Piperazin-1-y1)-9H-purin-9-y)methyl)pyridin-3-y1)-1H-1,2,3-triazol-1-yl)-22-deoxypleuromutilin-16” for “in linezolid 5”, “after 9” for “after 5”; assay type: functional
[13] = system: Staphylococcus aureus; assay: Induction of resistant development in linezolid 5 passages resistance developed Staphylococcus aureus USA300 FPR3757 assessed as fold increase in MIC at sub-MIC concentration measured after 9 passages with conjugate by serial passage assay; assay type: functional
[14] = Half life in pig urine at 10 mg/kg, po measured upto 240 mins by LC-MS/MS analysis; assay type: ADME, organism-based, Sus scrofa
[15] = AUC (0 to infinity) in pig plasma at 3 mg/kg, iv measured upto 240 mins by LC-MS/MS analysis; assay type: ADME, organism-based, Sus scrofa; details: in vivo, 4 h
[16] = AUC (0 to infinity) in NMRI female mouse at 60 mg/kg, sc by HPLC analysis; assay type: ADME, organism-based; details: in vivo
[17] = Elimination rate constant in NMRI female mouse at 60 mg/kg, sc by HPLC analysis; assay type: ADME, organism-based; details: in vivo
[18] = Tmax in NMRI female mouse at 60 mg/kg, sc by HPLC analysis; assay type: ADME, organism-based; details: in vivo
[19] = Cmax in NMRI female mouse at 60 mg/kg, sc by HPLC analysis; assay type: ADME, organism-based; details: in vivo
[20] = Clearance in NMRI female mouse at 30 mg/kg, iv by HPLC analysis; assay type: ADME, organism-based; details: in vivo
[21] = Half life in pig plasma at 10 mg/kg, po measured upto 240 mins by LC-MS/MS analysis; assay type: ADME, organism-based, Sus scrofa
[22] = Cmax in NMRI female mouse at 30 mg/kg, po by HPLC analysis; assay type: ADME, organism-based; details: in vivo
[23] = Clearance in NMRI female mouse at 20 mg/kg, sc by HPLC analysis; assay type: ADME, organism-based; details: in vivo
[24] = AUC (0 to infinity) in pig plasma at 10 mg/kg, po measured upto 240 mins by LC-MS/MS analysis; assay type: ADME, organism-based, Sus scrofa; details: in vivo, 4 h

## C=C[C@]1(C)C[C@@H](OC(=O)CS[C@@H]2CC[C@@H](N)C[C@H]2O)[C@]2(C)[C@H](C)CC[C@]3(CCC(=O)[C@H]32)[C@@H](C)[C@@H]1O [LEFAMULIN]
[1]
  Activity: inactive
[2]
  fold change (FC): 4
[3]
  fold change (FC): 64
[4]
  fold change (FC): 64
[5]
  Activity: inactive
[6]
  fold change (FC): 128
[7]
  QTc increase: 10 ms
[8]
  Ki: 860 nM
[9]
  fold change (FC): 32
[10]
  fold change (FC): 32
[11]
  fold change (FC): 16
[12]
  fold change (FC): 8
[13]
  fold change (FC): 8

## C=C[C@]1(C)C[C@@H](OC(=O)Cn2cc(-c3ccc(Cn4cnc5c(N6CCNCC6)ncnc54)nc3)nn2)[C@]2(C)[C@H](C)CC[C@]3(CCC(=O)[C@H]32)[C@@H](C)[C@@H]1O
[14]
  half-life: 132 min
[15]
  AUC: 35.5 µg/mL/min
[16]
  AUC: 428 µg/mL/min
[17]
  k el: 0.000102 s⁻¹
[18]
  Tmax: 15 min
[19]
  Cmax: 2560 ng/mL
[20]
  clearance: 69.8 mL/min/kg
[21]
  half-life: 22.2 min
[22]
  Cmax: 8.2 ng/mL
[23]
  CL/F: 90.3 mL/min/kg
[24]
  AUC: 7.1 µg/mL/min

Source: ChEMBL document CHEMBL5518206, “Hit-to-Lead Identification and Validation of a Triaromatic Pleuromutilin Antibiotic Candidate” (J Med Chem, 2024)
